The numbers were not newly measured in patent publication US12414914B2, “Docetaxel composition for injection and preparation method therefor” (BIKA BIOTECHNOLOGY (GUANGZHOU) CO., LTD, priority 2018, dated 2025), which cites them from elsewhere.

One data set deals with cancer cells. As to conditions: compared to paclitaxel.
The test system of data set [1] is microtubules. As to conditions: compared to paclitaxel.
The test system of data set [2] is microtubules.

As for `CC(=O)O[C@@]12CO[C@@H]1C[C@H](O)[C@@]1(C)C(=O)[C@H](O)C3=C(C)[C@@H](OC(=O)[C@H](O)[C@@H](NC(=O)OC(C)(C)C)c4ccccc4)C[C@@](O)([C@@H](OC(=O)c4ccccc4)[C@H]21)C3(C)C` (relative stereo) [docetaxel, [2aR-(2aα, 4β, 4aβ, 6β, 9α, (aR*, βS*), 11α, 12α, 12aα, 12bα)]-β-[[(1,1-dimethylethoxy)carbonyl]amino]-α-hydroxybenzene propanoic acid [12b-acetyloxy-12-benzoyloxy-2a, 3,4,4a, 5,6,9, 10, 11, 12, 12a, 12b-dodecahydro-4,6, 11-trihydroxy-4a, 8, 13, 13-tetramethyl-5-oxo-7, 11-methano-1H-cyclodeca-[3, 4]benz [1,2-b]oxet-9-yl] ester], the “anti-tumor activity in vitro relative to paclitaxel” value with cancer cells was 1.3˜12 times more active. Besides, in the data set with microtubules [1], the “activity as microtubule stabilizer and assembly promoter relative to paclitaxel” value is given as “twice as active as paclitaxel”; the “activity as microtubule-depolymerizing inhibitor relative to paclitaxel” value is “twice as active as paclitaxel”. The “stability in alkaline conditions” value (alkaline conditions) is “unstable in alkaline conditions”. The solubility in ethanol result (ethanol) is on record as “soluble in ethanol”. For the same molecule, the solubility in water entry (water) was “practically insoluble in water”. For the same molecule, the “Affinity to microtubules compared to paclitaxel” value in the data set with microtubules [2] is 2 times higher.
